# Test results reported in PubChem BioAssay AID1259407 (Chemical Carcinogenesis Research Information System (CCRIS), 2018).
# Calls of active or inactive are those of the source. How the calls were made is not given here.
# System: CCRIS mutagenicity, Ames/micronucleus/aberration tests
# Test: CCRIS mutagenicity studies
# [1] = Test System: AMES SALMONELLA TYPHIMURIUM, Strain/Indicator: TA98, Metabolic Activation: NONE, Method: STANDARD PLATE
# [2] = Test System: AMES SALMONELLA TYPHIMURIUM, Strain/Indicator: TA100, Metabolic Activation: NONE, Method: STANDARD PLATE
# [3] = Test System: AMES SALMONELLA TYPHIMURIUM, Strain/Indicator: TA1535, Metabolic Activation: NONE, Method: STANDARD PLATE
# [4] = Test System: AMES SALMONELLA TYPHIMURIUM, Strain/Indicator: TA1537, Metabolic Activation: NONE, Method: STANDARD PLATE
# [5] = Test System: AMES SALMONELLA TYPHIMURIUM, Strain/Indicator: TA98, Metabolic Activation: RAT, LIVER, S-9, AROCLOR 1254, Method: STANDARD PLATE
# [6] = Test System: AMES SALMONELLA TYPHIMURIUM, Strain/Indicator: TA100, Metabolic Activation: RAT, LIVER, S-9, AROCLOR 1254, Method: STANDARD PLATE
smiles,measurement,setting,value
Clc1ccc(C(c2ccc(Cl)cc2)C(Cl)(Cl)Cl)cc1,mutagenic call,"Test System: AMES SALMONELLA TYPHIMURIUM, Strain/Indicator: TA97, Metabolic Activation: HAMSTER, LIVER, S-9, AROCLOR 1254 (10 OR 30%), Method: PREINCUBATION",inactive; negative
same,mutagenic call,"Test System: AMES SALMONELLA TYPHIMURIUM, Strain/Indicator: TA97, Metabolic Activation: NONE, Method: PREINCUBATION",inactive; negative
same,mutagenic call,"Test System: AMES SALMONELLA TYPHIMURIUM, Strain/Indicator: TA97, Metabolic Activation: RAT, LIVER, S-9, AROCLOR 1254 (10 OR 30%), Method: PREINCUBATION",inactive; negative
same,mutagenic call,"Test System: AMES SALMONELLA TYPHIMURIUM, Strain/Indicator: TA98, Metabolic Activation: HAMSTER, LIVER, S-9, AROCLOR 1254 (10 OR 30%), Method: PREINCUBATION",inactive; negative
same,mutagenic call,"Test System: AMES SALMONELLA TYPHIMURIUM, Strain/Indicator: TA98, Metabolic Activation: NONE, Method: PREINCUBATION",inactive; negative
same,mutagenic call,"Test System: AMES SALMONELLA TYPHIMURIUM, Strain/Indicator: TA98, Metabolic Activation: RAT, LIVER, S-9, AROCLOR 1254 (10 OR 30%), Method: PREINCUBATION",inactive; negative
same,mutagenic call,"Test System: AMES SALMONELLA TYPHIMURIUM, Strain/Indicator: TA100, Metabolic Activation: HAMSTER, LIVER, S-9, AROCLOR 1254 (10 OR 30%), Method: PREINCUBATION",inactive; negative
same,mutagenic call,"Test System: AMES SALMONELLA TYPHIMURIUM, Strain/Indicator: TA100, Metabolic Activation: NONE, Method: PREINCUBATION",inactive; negative
same,mutagenic call,"Test System: AMES SALMONELLA TYPHIMURIUM, Strain/Indicator: TA100, Metabolic Activation: RAT, LIVER, S-9, AROCLOR 1254 (10 OR 30%), Method: PREINCUBATION",inactive; negative
same,mutagenic call,"Test System: AMES SALMONELLA TYPHIMURIUM, Strain/Indicator: TA1535, Metabolic Activation: HAMSTER, LIVER, S-9, AROCLOR 1254 (10 OR 30%), Method: PREINCUBATION",inactive; negative
same,mutagenic call,"Test System: AMES SALMONELLA TYPHIMURIUM, Strain/Indicator: TA1535, Metabolic Activation: NONE, Method: PREINCUBATION",inactive; negative
same,mutagenic call,"Test System: AMES SALMONELLA TYPHIMURIUM, Strain/Indicator: TA1535, Metabolic Activation: RAT, LIVER, S-9, AROCLOR 1254 (10 OR 30%), Method: PREINCUBATION",inactive; negative
same,mutagenic call,"Test System: AMES SALMONELLA TYPHIMURIUM, Strain/Indicator: TA1537, Metabolic Activation: HAMSTER, LIVER, S-9, AROCLOR 1254 (30%), Method: PREINCUBATION",inactive; negative
same,mutagenic call,"Test System: AMES SALMONELLA TYPHIMURIUM, Strain/Indicator: TA1537, Metabolic Activation: NONE, Method: PREINCUBATION",inactive; negative
same,mutagenic call,"Test System: AMES SALMONELLA TYPHIMURIUM, Strain/Indicator: TA1537, Metabolic Activation: RAT, LIVER, S-9, AROCLOR 1254 (30%), Method: PREINCUBATION",inactive; negative
same,mutagenic call,"Test System: CHINESE HAMSTER V-79, Strain/Indicator: V-79/8-AZAGUANINE, Metabolic Activation: NONE, Method: STANDARD PLATE",active; positive
CC(=O)Nc1ccc(Cc2ccc(N)cc2)cc1,mutagenic call,[1],inactive; negative
same,mutagenic call,"Test System: AMES SALMONELLA TYPHIMURIUM, Strain/Indicator: TA98, Metabolic Activation: RAT, LIVER, S-9, PCB, Method: STANDARD PLATE",inactive; negative
same,mutagenic call,[2],inactive; negative
same,mutagenic call,"Test System: AMES SALMONELLA TYPHIMURIUM, Strain/Indicator: TA100, Metabolic Activation: RAT, LIVER, S-9, PCB, Method: STANDARD PLATE",inactive; negative
O=P(O)(O)Oc1c(Br)cc(Br)cc1-c1cc(Br)cc(Br)c1O,mutagenic call,[1],inactive; negative
same,mutagenic call,"Test System: AMES SALMONELLA TYPHIMURIUM, Strain/Indicator: TA98, Metabolic Activation: RAT, LIVER, S-9, KANECHLOR 400, Method: STANDARD PLATE",inactive; negative
same,mutagenic call,[2],inactive; negative
same,mutagenic call,"Test System: AMES SALMONELLA TYPHIMURIUM, Strain/Indicator: TA100, Metabolic Activation: RAT, LIVER, S-9, KANECHLOR 400, Method: STANDARD PLATE",inactive; negative
same,mutagenic call,[3],inactive; negative
same,mutagenic call,"Test System: AMES SALMONELLA TYPHIMURIUM, Strain/Indicator: TA1535, Metabolic Activation: RAT, LIVER, S-9, KANECHLOR 400, Method: STANDARD PLATE",inactive; negative
same,mutagenic call,[4],inactive; negative
same,mutagenic call,"Test System: AMES SALMONELLA TYPHIMURIUM, Strain/Indicator: TA1537, Metabolic Activation: RAT, LIVER, S-9, KANECHLOR 400, Method: STANDARD PLATE",inactive; negative
same,mutagenic call,"Test System: AMES SALMONELLA TYPHIMURIUM, Strain/Indicator: TA1538, Metabolic Activation: NONE, Method: STANDARD PLATE",inactive; negative
same,mutagenic call,"Test System: AMES SALMONELLA TYPHIMURIUM, Strain/Indicator: TA1538, Metabolic Activation: RAT, LIVER, S-9, KANECHLOR 400, Method: STANDARD PLATE",inactive; negative
Clc1ccc2cc3ccccc3cc2c1,mutagenic call,[1],inactive; negative
same,mutagenic call,[5],active; positive
same,mutagenic call,[2],inactive; negative
same,mutagenic call,[6],inactive; negative
O=C/C=C/C=C\c1ccc([N+](=O)[O-])cc1,mutagenic call,"Test System: AMES SALMONELLA TYPHIMURIUM, Strain/Indicator: 98(NR), Metabolic Activation: HAMSTER, LIVER, S-9, AROCLOR 1254, Method: STANDARD PLATE",active; positive
same,mutagenic call,"Test System: AMES SALMONELLA TYPHIMURIUM, Strain/Indicator: 98(NR), Metabolic Activation: NONE, Method: STANDARD PLATE",active; positive
same,mutagenic call,"Test System: AMES SALMONELLA TYPHIMURIUM, Strain/Indicator: 98(NR), Metabolic Activation: RAT, LIVER, S-9, AROCLOR 1254, Method: STANDARD PLATE",active; positive
same,mutagenic call,"Test System: AMES SALMONELLA TYPHIMURIUM, Strain/Indicator: 100(NR), Metabolic Activation: HAMSTER, LIVER, S-9, AROCLOR 1254, Method: STANDARD PLATE",active; positive
same,mutagenic call,"Test System: AMES SALMONELLA TYPHIMURIUM, Strain/Indicator: 100(NR), Metabolic Activation: NONE, Method: STANDARD PLATE",active; positive
same,mutagenic call,"Test System: AMES SALMONELLA TYPHIMURIUM, Strain/Indicator: 100(NR), Metabolic Activation: RAT, LIVER, S-9, AROCLOR 1254, Method: STANDARD PLATE",active; positive
same,mutagenic call,"Test System: AMES SALMONELLA TYPHIMURIUM, Strain/Indicator: TA98, Metabolic Activation: HAMSTER, LIVER, S-9, AROCLOR 1254, Method: STANDARD PLATE",active; positive
same,mutagenic call,[1],active; positive
same,mutagenic call,[5],active; positive
same,mutagenic call,"Test System: AMES SALMONELLA TYPHIMURIUM, Strain/Indicator: TA100, Metabolic Activation: HAMSTER, LIVER, S-9, AROCLOR 1254, Method: STANDARD PLATE",active; positive
same,mutagenic call,[2],active; positive
same,mutagenic call,[6],active; positive
same,mutagenic call,"Test System: AMES SALMONELLA TYPHIMURIUM, Strain/Indicator: TA1535, Metabolic Activation: HAMSTER, LIVER, S-9, AROCLOR 1254, Method: STANDARD PLATE",active; positive
same,mutagenic call,[3],active; positive
same,mutagenic call,"Test System: AMES SALMONELLA TYPHIMURIUM, Strain/Indicator: TA1535, Metabolic Activation: RAT, LIVER, S-9, AROCLOR 1254, Method: STANDARD PLATE",active; positive
same,mutagenic call,[4],active; positive
same,mutagenic call,"Test System: AMES SALMONELLA TYPHIMURIUM, Strain/Indicator: TA1537, Metabolic Activation: RAT, LIVER, S-9, AROCLOR 1254, Method: STANDARD PLATE",active; positive
same,mutagenic call,"Test System: Mouse lymphoma, Strain/Indicator: L5178Y (tk+/tk-), Metabolic Activation: None, Method: Suspension/plate",active; equivocal (previous evaluation positive)
same,mutagenic call,"Test System: Mouse lymphoma, Strain/Indicator: L5178Y (tk+/tk-), Metabolic Activation: Rat, Liver, S-9, Aroclor 1254, Method: Suspension/plate",inactive; negative
